Data set [1] is described as follows: In vitro Colonic Material Stability Assay. The settings on record: colonic material slurry in YCFAC media, anaerobic, 1 or 10 μM. The data set is classed as in vitro ADME. The method, then: Assay 3. In vitro Colonic Material Stability Assay. This assay was used to assess the stability of a conjugate in a large intestine. All experiments were performed in an anaerobic chamber containing 90% nitrogen, 5% hydrogen and 5% carbon dioxide. Colonic material was resuspended as a slurry (15% w/v final concentration) in pre-reduced, anaerobically sterilized dilution blanks (Anaerobe Systems AS-908). The colonic material was then inoculated into 96 well plates containing YCFAC media (Anaerobe Systems AS-680) or other suitable media (6.7 μL slurry into 1 mL total media). Compounds or groups of compounds were added to each individual well to reach a final analyte concentration of 1 or 10 μM, and the material was mixed by pipetting. Sample was removed after set timepoints (0, 120, 240, 480, 1440, 2880 minutes after initiation of the assay), quenched with acetonitrile containing internal standard, and analyzed by LC/MS.

Data set [2] can be described thus: Stability of conjugates in Simulated Intestinal Fluid (SIF). The settings on record: SIF pH 6.7 with pancreatin, 37° C., 1 μM compound. It counts as in vitro ADME. Here is the method:
Assay 2. Stability of conjugates in Simulated Intestinal Fluid (SIF). This assay was used to assess the stability of a conjugate in a small intestine.
Phosphate buffer was prepared by dissolving 0.42 g of sodium hydroxide pellets and 3.95 g of monobasic sodium phosphate monohydrate and 6.19 g of sodium chloride in ultrapure water (MilliQ®, Millipore Sigma, Darmstadt, Germany). The pH was adjusted to 6.7 using aq. HCl and aq. NaOH, as necessary, and the solution was diluted with ultrapure water to produce 1 L of the pH 6.7 buffer.
112 mg FaSSIF powder (Biorelevant™, London, UK) was dissolved in 50 mL of the pH 6.7 buffer. 2 to 3 mL of the resulting solution were then added to 500 mg pancreatin (Millipore Sigma, Darmstadt, Germany). The resulting mixture was agitated by finger tapping the vessel containing the mixture until milky suspension formed. At this time, the remainder of the 50 mL FaSSiF/pH 6.7 buffer solution was added. The resulting suspension was flipped upside down 10 times to produce SIF, which was used fresh.
Test compounds were dissolved in DMSO stock to 1 mM. An aliquot of the DMSO stock solution was removed and diluted in the SIF media in 15 mL falcon tubes to produce a mixture with a tested compound concentration of 1 μM. A 1 mL aliquot was immediately removed and diluted once with 1 volume of acetonitrile for TO timepoint. The mixture was sealed and agitated at 37° C. in an incubator. Aliquots (1 mL) were removed at regular intervals and immediately quenched by the addition of 1 volume of acetonitrile. The resulting samples were analyzed by LC/MS to determine degradation rates

Data set [3] in a line: Stability of conjugates in Simulated Gastric Fluid (SGF). The data set is classed as in vitro ADME. As to conditions: SGF pH 1.6 with pepsin, 37° C., 1 μM compound. Here is the method: Assay 1. Stability of conjugates in Simulated Gastric Fluid (SGF). This assay was used to assess the stability of a conjugate in a stomach.
Medium was prepared by dissolving 2 g of sodium chloride in 0.6 L in ultrapure water (MilliQ®, Millipore Sigma, Darmstadt, Germany). The pH was adjusted to 1.6 with 1N hydrochloric acid, and the volume was then adjusted to 1 L with purified water.
60 mg FaSSIF powder (Biorelevant™, London, UK) were dissolved in 500 mL buffer (above). Pepsin was added (0.1 mg/mL) (Millipore Sigma, Darmstadt, Germany), and the solution was stirred. The resulting SGF media were used fresh for each experiment.
Test compounds were dissolved in DMSO stock to 1 mM. An aliquot of the DMSO stock solution was removed and diluted in the SGF Media in 15 mL falcon tubes to generate a total compound concentration of 1 μM. A 1 mL aliquot was immediately removed and diluted once with 1 volume of acetonitrile for TO timepoint. The mixture was sealed and mixed at 37° C. in an incubator. Aliquots (1 mL) were removed at regular intervals and immediately quenched by the addition of 1 volume of acetonitrile. The resulting samples were analyzed by LC/MS to determine degradation rates in SGF.

Data set [4] in a line: Gastrointestinal (GI) Exposure to Propionate (Study 1). The settings on record: mouse; for Propionate-d3 AUClast / Propionate-d3 Tmax: single oral dose: Propionate-d3 62 mg/kg, Compound 3-d12 110 mg/kg, Compound 6-d9 91 mg/kg. The data set is classed as in vivo, CD-1 mice. Here is the method:
In order to measure propionate concentrations along the GI track, CD-1 mice were orally administered a single dose of deuterated sodium propionate, Compound 3 comprising deuterated propionate, or Compound 6 comprising deuterated propionate (Propionate-d3, Compound 3-d12, and Compound 6-d9, respectively; suspension, 1% (w/v) methyl cellulose in deionized water). The amounts of compound dosed were normalized to provide approximately equimolar amounts of […] (Propionate-d3 at 62 mg/kg, Compound 3-d12 at 110 mg/kg, and Compound 6-d9 at 91 mg/kg). […] Blood samples were collected in K2EDTA tubes and stored on wet ice no more than 30 min and then further processed to plasma. GI samples were placed into separate labeled, pre-weighted collection tubes and frozen before analysis. Brain samples were homogenized prior to analysis. Samples were subsequently worked up and analyzed by LC-MS/MS for deuterated propionate concentration. Propionate concentrations versus time for different tissues are depicted in FIGS. 4A-4H and 5A-5C.

The structures appear in SMILES notation. Structures can show the parent of a compound that is named as a salt.

Regarding `CCCC(=O)O[C@@H]1[C@@H](OC(=O)CCC)[C@H](OC(=O)/C=C/C(=O)OC)OC[C@@H]1OC(=O)CCC` [Compound 36, 1-methyl (2S,3R,4S,5S)-3,4,5-tris(butanoyloxy)oxan-2-yl (2E)-but-2-enedioate], in data set [1], the “Assay 3 (% Remaining at 24 h)” value is “C (C: >75% of the tested compound remaining)”. Moreover, the “Assay 2 (SIF) (% @ Remaining 4 hours)” value in data set [2] is given as “A (A: <25% of the tested compound remaining)”. The “Assay 1 (SGF) (% Remaining @ 1 hour)” value in data set [3] was “C (C: >75% of the tested compound remaining)”.

In the case of `CCCC(=O)O[C@@H]1[C@@H](OC(=O)CCC)[C@@H](OC(=O)/C=C/C(=O)OC)O[C@H](CO)[C@H]1OC(=O)CCC` [Compound 39, 1-methyl (2R,3R,4S,5R,6R)-3,4,5-tris(butanoyloxy)-6-(hydroxymethyl)oxan-2-yl (2E)-but-2-enedioate], the “Assay 3 (% Remaining at 24 h)” value in data set [1] is on record as “A (A: <25% of the tested compound remaining)”. Besides, the “Assay 2 (SIF) (% @ Remaining 4 hours)” value in data set [2] was “A (A: <25% of the tested compound remaining)”. In addition, the “Assay 1 (SGF) (% Remaining @ 1 hour)” value in data set [3] is recorded as “C (C: >75% of the tested compound remaining)”.

Regarding `CCC(=O)OC[C@H]1O[C@@H](OC(=O)/C=C/C(=O)OC)[C@H](N)[C@@H](OC(=O)CC)[C@@H]1OC(=O)CC.Cl` [Compound 27, (2S,3R,4R,5S,6R)-2-(((E)-4-methoxy-4-oxobut-2-enoyl)oxy)-4,5-bis(propionyloxy)-6-((propionyloxy)methyl)tetrahydro-2H-pyran-3-aminium Chloride], the “Assay 3 (% Remaining at 24 h)” value in data set [1] is listed as “B (B: 25-75% of the tested compound remaining)”. For the same compound, the “Assay 2 (SIF) (% @ Remaining 4 hours)” value in data set [2] was “C (C: >75% of the tested compound remaining)”.

Take `CCC(=O)O[C@@H]1[C@@H](OC(=O)CC)[C@@H](OC(=O)/C=C/C(=O)OC)O[C@H](C(=O)O)[C@H]1OC(=O)CC` [Compound 26, (2S,3S,4S,5R,6R)-6-(((E)-4-methoxy-4-oxobut-2-enoyl)oxy)-3,4,5-tris(propionyloxy)tetrahydro-2H-pyran-2-carboxylic Acid]: in data set [2], the “Assay 2 (SIF) (% @ Remaining 4 hours)” value is listed as “A (A: <25% of the tested compound remaining)”. For the same compound, in data set [3], the “Assay 1 (SGF) (% Remaining @ 1 hour)” value is on record as “C (C: >75% of the tested compound remaining)”.

For `CCC(=O)OC[C@H]1O[C@H](OC(=O)/C=C/C(=O)OC)[C@H](OC(=O)CC)[C@@H](OC(=O)CC)[C@H]1O` [Compound 49, (2R,3R,4S,5S,6R)-5-hydroxy-3,4-bis(propanoyloxy)-6-[(propanoyloxy)methyl]oxan-2-yl 1-methyl (2E)-but-2-enedioate], in data set [2], the “Assay 2 (SIF) (% @ Remaining 4 hours)” value is listed as “A (A: <25% of the tested compound remaining)”. In addition, the “Assay 1 (SGF) (% Remaining @ 1 hour)” value in data set [3] was “C (C: >75% of the tested compound remaining)”.

With `CCCC(=O)OC[C@H]1O[C@H](OC(=O)/C=C/C(=O)OC)[C@H](N)[C@@H](OC(=O)CCC)[C@@H]1OC(=O)CCC.Cl` [Compound 28, (2R,3R,4R,5S,6R)-4,5-bis(butyryloxy)-6-((butyryloxy)methyl)-2-(((E)-4-methoxy-4-oxobut-2-enoyl)oxy)tetrahydro-2H-pyran-3-aminium Chloride], the “Assay 3 (% Remaining at 24 h)” value in data set [1] is “B (B: 25-75% of the tested compound remaining)”. In data set [2], the “Assay 2 (SIF) (% @ Remaining 4 hours)” value is “B (B: 25-75% of the tested compound remaining)”.

Consider `[2H]C([2H])([2H])CC(=O)[O-].[Na+]` [Propionate-d3, sodium propionate-d3, reference compound], for which the “Propionate-d3 AUClast” value was “below quantitative” in data set [4] (Brain); 76 nmol·h/g in data set [4] (Cecum); 31 nmol·h/g in data set [4] (Distal Colon); 6.6 nmol·h/g in data set [4] (Distal Intestine); 46 nmol·h/g in data set [4] (Proximal Colon); 13 nmol·h/g in data set [4] (Proximal Intestine). Besides, the “Propionate-d3 AUClast” value in data set [4] (Stomach) is 7020 nmol·h/g. Besides, the “Propionate-d3 Tmax” value in data set [4] (Brain) was found to be 15 min; in data set [4] (Cecum) it was 15 min; in data set [4] (Distal Colon), 15 min; in data set [4] (Distal Intestine) it was 30 min; in data set [4] (Proximal Colon), 15 min; in data set [4] (Proximal Intestine), 15 min. In addition, the “Propionate-d3 Tmax” value in data set [4] (Stomach) was 15 min. Besides, the “region where the highest concentrations (Cmax) of propionate-d3 were observed” value in data set [4] (single oral dose, GI tissues) is given as “stomach”.

As to `COC(=O)/C=C/C(=O)Oc1cc(OC(=O)/C=C/C(=O)OC)c2c(c1)O[C@H](c1ccc(OC(=O)/C=C/C(=O)OC)c(OC(=O)/C=C/C(=O)OC)c1)[C@H](OC(=O)/C=C/C(=O)OC)C2` [Compound 53, O4-[2-[(E)-4-methoxy-4-oxo-but-2-enoyl]oxy-4-[(2R,3R)-3,5,7-tris[[(E)-4-methoxy-4-oxo-but-2-enoyl]oxy]chroman-2-yl]phenyl] O1-methyl (E)-but-2-enedioate], the “Assay 2 (SIF) (% @ Remaining 4 hours)” value in data set [2] is listed as “A (A: <25% of the tested compound remaining)”. Also, in data set [3], the “Assay 1 (SGF) (% Remaining @ 1 hour)” value is on record as “C (C: >75% of the tested compound remaining)”.

On to `CCC(=O)O[C@@H]1[C@@H](OC(=O)CC)[C@@H](OC(=O)/C=C/C(=O)OC)OC[C@H]1OC(=O)CC` [Compound 16, Methyl ((2R,3R,4S,5R)-3,4,5-tris(propionyloxy)tetrahydro-2H-pyran-2-yl) fumarate], for which the “Assay 3 (% Remaining at 24 h)” value in data set [1] was “C (C: >75% of the tested compound remaining)”.

In the case of `CCC(=O)OC[C@H]1O[C@@H](OC(=O)CC)[C@H](OC(=O)CC)[C@@H](OC(=O)CC)[C@H]1OC(=O)/C=C/C(=O)OC` [Compound 51, 1-methyl (2R,3S,4S,5R,6S)-4,5,6-tris(propanoyloxy)-2-[(propanoyloxy)methyl]oxan-3-yl (2E)-but-2-enedioate], the “Assay 2 (SIF) (% @ Remaining 4 hours)” value in data set [2] is reported as “A (A: <25% of the tested compound remaining)”. Further, the “Assay 1 (SGF) (% Remaining @ 1 hour)” value in data set [3] is listed as “C (C: >75% of the tested compound remaining)”.

As for `CCCC(=O)O[C@H]1[C@@H](OC(=O)CCC)[C@@H](CO)O[C@H](OC(=O)/C=C/C(=O)OC)[C@@H]1OC(=O)CCC` [Compound 45, 1-methyl (2R,3R,4S,5S,6R)-3,4,5-tris(butanoyloxy)-6-(hydroxymethyl)oxan-2-yl (2E)-but-2-enedioate], in data set [2], the “Assay 2 (SIF) (% @ Remaining 4 hours)” value is reported as “A (A: <25% of the tested compound remaining)”. The “Assay 1 (SGF) (% Remaining @ 1 hour)” value in data set [3] is on record as “C (C: >75% of the tested compound remaining)”.

The values above are taken from patent publication US20210299079A1, “MONOMETHYL FUMARATE-CARRIER CONJUGATES AND METHODS OF THEIR USE” (Flagship Pioneering Innovations V, Inc., priority 2018, published 2021).
